Results published in US12708673B2, “Methods and compositions related to peptides and proteins with c-terminal elements” (Sanford Burnham Prebys Medical Discovery Institute, priority 2008, dated 2026).
Entries after “also recorded” stand apart in the source; their conditions may differ. Ends that are not written are not given here.

Legend:
Assay type in all cases: cell-based, human
[1] = system: PPC-1 cells; test: T7 phage internalization into PPC-1 (PPC1) cells at 37° C. (acid wash and titration, or anti-T7 staining and confocal imaging); conditions: for Effect of endocytosis inhibitor on uptake of CendR peptides (RPARPAR phage internalization): 90 minutes at 37° C., acid wash and titration; for Phage internalization into PPC-1 cells (in words): 37° C.; for Internalization into PPC1 cells compared to native iRGD phage: truncated versions of iRGD phage
Procedure: (§1) FIG. 2A: Binding of T7 phage to prostate cancer cells depends on the display of a C-terminal arginine on the phage particles. PPC1 cells were incubated with T7 bacteriophage displaying derivatives of the G7 (upper graph) or RPARPAR peptide (SEQ ID NO: 2) (lower graph) at 4° C., and the bound phage was quantified by plaque assay. Binding is expressed in fold over of the non-binding G7 control phage. FIG. 2B: Phage displaying C-terminal arginine is internalized into cultured PPC1 cells (arrow, nuclear internalization; arrowhead, cytoplasmic internalization). A panel of T7 phage clones were incubated at 37° C. with PPC1 cells grown on collagen-coated coverslips, stained with anti T7 antibody and imaged by confocal microscopy.
(§2) Phage display. For in vivo phage display, mice were injected intravenously with 10^10 plaque-forming units (pfu) of T7 phage followed by perfusion of the circulatory system and determination of the bound phage in target organs by titration. For cell binding studies on cultured cells (in vitro display) and organ-derived cell suspensions (ex vivo display), the cells were incubated with 10^9 pfu of phage at 4° C., washed, lysed, and quantified by titration. Incubation at 37° C. followed by low pH wash (glycine-HCl, pH 2.5) was used to assess the amount of internalized phage.
(§3) For biopanning and phage binding studies (Hoffman, J. A. et al., 2004), cultured cells were grown to confluence and harvested with trypsin and mouse organs were dissociated using Medimachine (BD Biosciences, San Jose, CA). To measure phage binding, 10^6 cells in binding buffer (DMEM containing 1% BSA) were incubated with 10^9 pfu/ml of T7 phage for 1 hour at 4° C. The cells were washed 4 times with the binding buffer, lysed in LB bacterial growth medium containing 1% NP-40, and titrated. Phage internalization assays used the same procedure, except that the cells were incubated with the phage at 37° C., and that an acidic buffer (500 mM sodium chloride, 0.1 M glycine, 1% BSA, pH 2.5) was used instead of binding buffer in the second wash.
(§4) Centrifugation on a silicone oil cushion (1.03 g/ml) was used to separate unbound phage from cells during time course experiments. Inhibitors of phage binding and internalization (heparin, chondroitin, glycocalyx removal enzymes, endocytosis inhibitors, free peptides, quantum dots and UV-inactivated phage) were added to the cells 20 minutes prior to incubation with phage. Endocytosis inhibitors used in this study were the following: nystatin (50 μg/ml), genistein (100 μg/ml), chlorpromazine (5 μg/ml), 5-(N-ethyl-N-isopropyl) amiloride (100 μM), wortmannin (10 μM).
Immunofluorescence staining. Cultured cells (2×10^5 cells) were grown in 6-well tissue culture plates on collagen-I coated coverslips (BD Biosciences, San Jose, CA) overnight at 37° C. in 5% CO2, and incubated with 10^8 pfu of T7 phage. The cells were fixed in 4% paraformaldehyde or cold (−20° C.) methanol, and stained with antibodies. Nuclei were stained with DAPI or […]. A polyclonal rabbit anti-T7 antibody was generated in-house as described previously (Laakkonen, P. et al. 2002b), except that an additional phage purification step using […] centrifugation was included. Other primary antibodies used were rat anti-mouse CD31 monoclonal antibody (BD Biosciences), rabbit anti-NRP-1, mouse anti-human Lamp-1, mouse anti-human caveolin (Millipore, Temecula, CA), mouse anti-NRP-1 (Miltenyi Biotec Inc., Auburn, CA), mouse anti-human EEA-1 (BD Biosciences, San Jose, CA). The secondary antibodies, Alexa594 goat antibodies to mouse, rat, and rabbit immunoglobulins and Alexa488 donkey anti-rabbit antibody were from Invitrogen (Carlsbad, CA). Cells and tissue sections were examined by confocal microscopy (Fluoview 500, Olympus America Inc., Center Valley, PA).

[2] = system: PPC-1 cells; test: Binding and internalization of peptide-coated quantum dots by PPC-1 cells (confocal/fluorescence microscopy)
[3] = system: PPC-1 cells; test: T7 phage binding to PPC-1 (PPC1) cells at 4° C., quantified by titration/plaque assay; conditions: for Effect of glycosaminoglycan digestion or competition on RPARPAR phage binding: data not shown
Procedure: as §1, §2, §3, §4

[4] = system: PPC-1 cells; test: Confocal immunofluorescence co-staining of phage/qdots with cellular markers in PPC-1 cells; conditions: immunofluorescent co-staining
[5] = system: PPC-1 cells; test: Protease treatment of phage followed by phage binding assay on PPC-1 cells at 4° C.
Procedure: 5×10^8 phage particles were incubated with indicated volumes of 2.5% trypsin at 37° C. for 20 min, followed by incubation of the phage with 1×10^6 PPC1 cells at 4° C. for 3 hours. Binding is expressed as fold over non-binding G7 control phage (the internalization of which was not affected by the trypsin treatment).
10^9 pfu of RPARPARA (SEQ ID NO:3) phage was treated with indicated amounts of trypsin at 37° C. followed by phage binding assay at 4° C. The data are representative of 4 independent binding experiments.
FIGS. 20A-20C show urokinase dependent CendR peptide. FIG. 20A: The design of a uPA-activatable CendR peptide (uCendR). […] Statistical analysis was performed with ANOVA (b); n=3; error bars indicate s.d.; triple asterisk, p<0.001. Scale bars: 20 μm.
as §3
Protease treatment of phage and qdots. 10^9 phage particles or 50 μl of peptide-coated qdots phage were treated with 50 iu of uPA, 25 μg of crystalline trypsin, 50 iu of thrombin, or 25 μg of collagenase type I (all Sigma, St. Louis, Mo).

Molecule: CCN(c1nc(N)c(C(=O)N=C(N)N)nc1Cl)C(C)C [5-(N-ethyl-N-isopropyl) amiloride, reference compound]
- Effect of endocytosis inhibitor on uptake of CendR peptides (RPARPAR phage internalization) [1]: None of these inhibitors affected the uptake

Molecule: N=C(N)NC(=O)c1nc(Cl)c(N)nc1N [Amiloride, reference compound]
- Effect on uptake of uPA-CendR qdots [2]: inhibited uptake

Molecule: CN(C)CCCN1c2ccccc2Sc2ccc(Cl)cc21 [chloropromazine, reference compound]
- Effect of endocytosis inhibitor on uptake of CendR peptides (RPARPAR phage internalization) [1]: None of these inhibitors affected the uptake

Molecule: O=c1c(-c2ccc(O)cc2)coc2cc(O)cc(O)c12 [genistein, reference compound]
- Effect of endocytosis inhibitor on uptake of CendR peptides (RPARPAR phage internalization) [1]: None of these inhibitors affected the uptake

Molecule: C[C@@H]1[C@H](O)[C@@H](C)/C=C/C=C/CC/C=C/C=C/C=C/C=C/C(O[C@H]2O[C@H](C)[C@@H](O)[C@H](N)[C@@H]2O)CC2O[C@](O)(CC(O)C(O)CCC(O)CC(O)CC(O)CC(=O)O[C@H]1C)CC(O)C2C(=O)O (some centres unmarked) [nystatin, reference compound]
- Effect of endocytosis inhibitor on uptake of CendR peptides (RPARPAR phage internalization) [1]: None of these inhibitors affected the uptake

Molecule: ATWLPPR [A7R phage, reference compound]
- Phage binding to PPC-1 cells (in words) ([3]; 4° C.): bound

Molecule: CG7C [CG7C control phage, reference compound]
- Phage internalization into PPC-1 cells (in words) [1]: does not

Molecule: CRGDK [CRGDK phage]
- Internalization into PPC1 cells compared to native iRGD phage [1]: higher ability to internalize

Molecule: CRGDKG [CRGDKG phage]
- Internalization into PPC1 cells compared to native iRGD phage [1]: higher ability to internalize

Molecule: D-rparpar [D-rparpar qdots]
- Binding and internalization of peptide-coated qdots (in words) [2]: greatly reduced ability to trigger uptake of quantum dots

Molecule: GGGGGGR [G6R phage]
- Phage binding to PPC-1 cells (in words) ([3]; 4° C.): weak phage binding

Molecule: RGERPPR [RGERPPR phage]
- Phage binding to PPC-1 cells (in words) ([3]; 4° C.): robust binding and internalization
- Phage internalization into PPC-1 cells (in words) [1]: robust binding and internalization

Molecule: RPAR [RPAR phage]
- Effect of UV-inactivated phage on CRGDK phage internalization ([1]; pre-incubation, various concentrations): inhibited by RPAR phage in a dose-dependent fashion

Molecule: RPARPAR (also: biotinylated, site not given here, on streptavidin quantum dot) [RPARPAR qdots, streptavidin quantum dots coated with biotinylated RPARPAR peptide with free C-terminus]
- Co-localization with NRP-1 [4]: co-localize with NRP-1 at the cell surface and inside the cells
- Effect of excess qdots on G6R phage binding ([3]; 4° C.): blocked
- Effect of preincubating cells with qdots on binding of RPARPAR, RGERPPR and RVTRPPR phage ([3]; 4° C.): inhibited
- Effect of qdots on binding and internalization of RPARPAR phage ([3]; bound at 4° C., internalized at 37° C. with low pH wash): inhibited both the binding and internalization of RPARPAR phage
- Binding and internalization of peptide-coated qdots (in words) [2]: robust binding and internalization; also recorded: bound and were internalized in a manner indistinguishable from the phage particles
- Time to perinuclear accumulation ([2]; qdots, 37° C., live cells): 1 h
- Time to plasma membrane association ([2]; qdots, 37° C., live cells): 15 min

Molecule: RPARPAR-NH2 [RPARPAR-NH2 qdots]
- Binding and internalization of peptide-coated qdots (in words) [2]: abolished the binding and internalization; also recorded: blocked qdot internalization

Molecule: RPARPARA (also: biotinylated, site not given here, on streptavidin quantum dot) [RPARPARA qdots]
- Binding and internalization of peptide-coated qdots (in words) [2]: prevented

Molecule: RPARSGRSAGGSVA (also: biotinylated, site not given here, on streptavidin quantum dot) [uCendR qdots]
- Internalization of untreated qdots ([2]; no uPA treatment): are not internalized
- Internalization of qdots after uPA treatment [2]: triggers internalization
- Internalization of qdots after uPA treatment ([2]; listed as RPARSGRSAGGSVA qdots): internalized in uPA sensitive fashion

Molecule: RPARSGRSAGGSVA [uPA-CendR phage]
- Effect of phage treatment with collagenase-I on binding ([5]; 25 μg of collagenase type I): had no effect
- Effect of phage treatment with thrombin on binding ([5]; 50 iu of thrombin): had no effect
- Elevation of binding by pretreatment with uPA ([5]; 50 iu of uPA prior to cell binding): more than 100 fold
- Binding of untreated phage to PPC-1 cells over control G7 phage ([5]; no protease treatment): did not bind
- Effect of trypsin treatment of phage on binding (in words) ([5]; trypsin): greatly enhanced the binding

Molecule: RVTRPPR [RVTRPPR phage]
- Phage binding to PPC-1 cells (in words) ([3]; 4° C.): robust binding and internalization
- Phage internalization into PPC-1 cells (in words) [1]: robust binding and internalization

Molecule: TKPPR [enhanced tuftsin phage, reference compound]
- Phage binding to PPC-1 cells (in words) ([3]; 4° C.): bound

Molecule: chondroitin sulfate [reference compound]
- Effect of glycosaminoglycan digestion or competition on RPARPAR phage binding [3]: had no effect

Molecule: chondroitinase ABC [reference compound]
- Effect of glycosaminoglycan digestion or competition on RPARPAR phage binding [3]: had no effect

Molecule: heparin [reference compound]
- Effect of glycosaminoglycan digestion or competition on RPARPAR phage binding [3]: had no effect

B1: heparinase III: enzyme used for digestion of cell surface glycosaminoglycans (protein, UniProt Q59289 25-659, looked up)
Heparin-sulfate lyase: QSSSITRKDFDHINLEYSGLEKVNKAVAAGNYDDAAKALLAYYREKSKAREPDFSNAEKPADIRQPIDKVTREMADKALVHQFQPHKGYGYFDYGKDINWQMWPVKDNEVRWQLHRVKWWQAMALVYHATGDEKYAREWVYQYSDWARKNPLGLSQDNDKFVWRPLEVSDRVQSLPPTFSLFVNSPAFTPAFLMEFLNSYHQQADYLSTHYAEQGNHRLFEAQRNLFAGVSFPEFKDSPRWRQTGISVLNTEIKKQVYADGMQFELSPIYHVAAIDIFLKAYGSAKRVNLEKEFPQSYVQTVENMIMALISISLPDYNTPMFGDSWITDKNFRMAQFASWARVFPANQAIKYFATDGKQGKAPNFLSKALSNAGFYTFRSGWDKNATVMVLKASPPGEFHAQPDNGTFELFIKGRNFTPDAGVFVYSGDEAIMKLRNWYRQTRIHSTLTLDNQNMVITKARQNKWETGNNLDVLTYTNPSYPNLDHQRSVLFINKKYFLVIDRAIGEATGNLGVHWQLKEDSNPVFDKTKNRVYTTYRDGNNLMIQSLNADRTSLNEEEGKVSYVYNKELKRPAFVFEKPKKNAGTQNFVSIVYPYDGQKAPEISIRENKGNDFEKGKLNLTLTINGKQQLVLVP
- Effect of glycosaminoglycan digestion or competition on RPARPAR phage binding [3]: had no effect
